Where “and” joins values, the source holds several entries; their conditions need not be identical. Identical values can stand only once. Like-named read-outs stand apart in the source and are kept apart here.
Columns and labels:
GSTM = GSTM levels in hepatic microsomes (Western blotting); assay type: in vivo, ACI rats; conditions: implant and dietary routes
Experimental: To evaluate the xenobiotic-metabolizing enzymes, liver samples from the animals (approximately 100 mg) were homogenized in 0.25 M sucrose buffer (pH 7.4) at 3000 rpm with Polytron. The homogenate was centrifuged at 3000 g for 20 min at 4° C. to separate the nuclear content, and the supernatant was then collected and again centrifuged at 11,000 g for 20 min at 4° C. to separate the mitochondria. The post-mitochondrial supernatant was then transferred to ultracentrifuge tubes and finally centrifuged at 100,000 g for 1 h at 4° C. to separate the microsomes. The pellet was suspended in 1 ml sucrose buffer, aliquoted and stored at −80° C. until use.
Microsomal proteins were subsequently quantified using a bicinchoninic acid (BCA) method and a BCA™ Protein Assay kit (Thermo Scientific, Rockford, Ill.) and were resolved by sodium dodecyl sulfatepolyacrylamide gel electrophoresis (SDS-PAGE) on a 10% gel. Protein bands were then transferred to polyvinylidene diflouride (PVDF) membrane, which was incubated with 5% non-fat dried milk in Tris-buffered-saline for 1 h at room temperature (25° C.) to block the non-specific binding sites. […] The bands were detected by enhanced chemiluminescence using Pierce® ECL Western-Blotting Substrate (Thermo Scientific, Rockford, Ill.) and quantified using VersaDoc Imaging System (BioRad Laboratories, Hercules, Calif.).

[1] = Lung and liver curcumin levels after subcutaneous implantation of curcumin matrices; assay type: in vivo, Sprague-Dawley rats
[2] = Tissue curcuminoid levels after coated implants (UPLC); assay type: in vivo, A/J mice; conditions: female, A/J, mouse, in vivo
Experimental: Briefly, liver and brain tissues (500 and 400 mg, respectively) from each animal were homogenized in 3 ml PBS (pH 7.4) containing 200 μl of 0.5 M sodium acetate, and extracted with ethyl acetate. After evaporation of the pooled extracts, the residue was reconstituted in 100 μl acetonitrile and analyzed by UPLC using Shimadzu UPLC system (Kyoto, Japan), with a Shim-Pack XR-ODS II reverse phase column (Shimadzu; 150×3.0 mm i.d., 2.2 μm).

[3] = tested on: B[a]P-induced DNA adducts
[4] = Plasma, liver and brain curcumin levels, implants versus diet (HPLC-fluorescence); assay type: in vivo, ACI rats; conditions: for plasma curcumin level: curcumin diet
Description: The in vivo cumulative release was studied in female Augustus Copenhagen Irish (ACI) rats following an approved protocol from an Institutional Animal Care and Use Committee (IACUC). […] All the animals were provided food and water ad libitum. Sham and curcumin implants were subcutaneously grafted at the back of the rats and were monitored for their diet intake and body weight. Animals were euthanized at different time intervals by asphyxiation to collect blood, liver, brain, local tissues and implants. All the tissues were snap frozen in liquid nitrogen and stored at −80° C. until further analysis.
Plasma pooled from all the animals (1.5 ml) was mixed with […] of 0.5 M sodium acetate to reduce the pH to 5. Plasma was then extracted three times with 3 ml ethyl acetate. Ethyl acetate extracts were pooled and dried under vacuum. The dried residue was reconstituted in 100 μl of acetonitrile, and one-half of the solution was analyzed by HPLC. Similarly, liver or brain tissue (approximately 500 mg) from each animal was homogenized in 3 ml PBS (pH 7.4) containing 200 μl sodium acetate (0.5 M). The homogenate was then extracted twice with two volumes of ethyl acetate. After evaporation of ethyl acetate under vacuum, the residue was reconstituted in 1 ml acetonitrile. The solution was filtered through 0.45 μm glass-microfiber filter and evaporated again under vacuum. The residue was finally reconstituted in 100 μl acetonitrile, and one-half of it was analyzed by HPLC using a Shimadzu liquid chromatography system equipped with LC-10ADVP pump, RF-10AXL fluorescence detector and a Shimadzu C18 column of 5 μm particles (250×4.6 mm). The three curcuminoids were separated by using acetonitrile and 1% citric acid (adjusted to pH 2.5) at a flow rate of 1 ml/min with a gradient elution in which acetonitrile concentration was increased from 0% to 30% in first 5 min, followed by an increase to 45% in next 5-20 min. Acetonitrile was then maintained at this ratio till 36 min. Curcuminoids were detected using 410 and 500 nm as excitation and emission maxima, respectively, in the fluorescence detector.

[5] = Toxicity of coated implants (body weight, hematology, liver and kidney function); assay type: in vivo, A/J mice
Experimental: To assess the toxicity of the implants, blood was collected separately at the time of euthanasia and hematological parameters were analyzed using whole blood by Cell Dyn 3500 hematology analyzer (Abbott laboratories, Santa Clara, Calif.). Serum was used to analyze the liver and kidney function test. An ion selective electrode was used for various electrolytes analysis and in-built spectrophotometric techniques were used for all other biochemical parameters analysis on automated AU640 Chemistry analyzed (Beckman Coulter, Inc., Brea, Calif.).

[6] = 1 cm PCL matrix with 20 mg curcumin, s.c., bolus B[a]P
[7] = dietary curcumin 400 ppm, bolus B[a]P
[8] = dietary curcumin 400 ppm, single i.p. B[a]P 50 mg/kg
[9] = female, ACI (Augustus Copenhagen Irish), rat, plasma, oral, 1000 ppm in diet

COc1cc(/C=C/C(=O)CC(=O)/C=C/c2ccc(O)c(OC)c2)ccc1O [curcumin]
GSTM levels (GSTM): not found to get modulated | concentration at 4 days ([1]; Sprague-Dawley, rat, liver, subcutaneous, 20 % w/w curcumin in two 2-cm polymeric matrices, implants 20% w/w, 4 days): ~40 ng/g | concentration at 7 days ([1]; Sprague-Dawley, rat, liver, subcutaneous, 20 % w/w curcumin in two 2-cm polymeric matrices, implants 20% w/w, 7 days): ~5 ng/g | concentration at 4 days ([1]; Sprague-Dawley, rat, lung, sc, 20 % w/w curcumin in two 2-cm polymeric matrices): ~15 ng/g | curcumin level in lung tissue ([1]; implants 20% w/w, after 7 days, maintained at 13 and 21 days): approximately 5 ng/g | curcumin level in liver tissue ([1]; implants 20% w/w, during the next 30 days): about 2.5 ng/g | concentration at 21 days [2]: 15 ng/g | inhibition of B[a]P-induced DNA adducts, liver [3, 6]: 48% | inhibition of B[a]P-induced DNA adducts, lung [3, 6]: 17% | dose of curcumin delivered by the implant ([3]; bolus B[a]P study): approximately 80 μg/rat/day | DNA adduct level, liver [3, 7]: 74±110 adducts/10^9 nucleotides | DNA adduct level, lung [3, 7]: 65±53 adducts/10^9 nucleotides | inhibition of B[a]P-induced DNA adducts, liver [3, 8]: 83% | inhibition of B[a]P-induced DNA adducts, lung [3, 8]: 45% | liver curcumin level ([4]; both routes (implants, diet), day 1): 25 to 30 ng | liver curcumin level ([4]; both routes, after 12 days): 10 to 15 ng | plasma curcumin level ([4]; 25 and 90 days): undetectable | plasma curcumin level ([4]; day 1): not observed | brain curcumin level ([4]; dietary administration 1000 ppm, all the time points): 2 to 3 ng/g | concentration at 1 day ([4]; female, ACI (Augustus Copenhagen Irish), rat, brain, subcutaneous, 2 2-cm curcumin implants, implant route, day 1): 30 ± 7.3 ng/g | Kp ([4]; female, ACI (Augustus Copenhagen Irish), rat, liver (against plasma), other: both routes (subcutaneous implants, diet), via both routes): 10 to 20 | concentration at 4 day [4, 9]: 0.3 ng/mL and 0.815 nM | concentration at 12 days [4, 9]: 0.543 nM and 0.2 ng/mL | concentration at 3 months ([4]; female, ACI (Augustus Copenhagen Irish), rat, plasma, subcutaneous, 2 2-cm curcumin implants, implants, after 3 months): ~0.2 ng/mL and 0.543 nM | concentration at 1 day ([4]; female, ACI (Augustus Copenhagen Irish), rat, plasma, subcutaneous, 2 2-cm curcumin implants, implants, day 1): 9 nM | concentration at 4 day ([4]; female, ACI (Augustus Copenhagen Irish), rat, plasma, subcutaneous, 2 2-cm curcumin implants, implants, day 4): 1.4 ng/mL and 4 nM | concentration at 1 day ([4]; female, ACI (Augustus Copenhagen Irish), rat, subcutaneous, 2 2-cm curcumin implants, implants (two 2-cm), day 1, pooled plasma): 3.3 ng/mL | brain curcumin level ([4]; implant route, after 12 days, same levels after 90 days): around 7.26±2.45 ng/g tissue | curcumin concentration in brain tissue, implant route higher than diet ([4]; rat, in vivo): approximately 3.5 fold | plasma and liver concentrations observed in the in vivo study ([4]; rat, in vivo): 78 to 95 nM | hematological parameters, liver enzymes, biochemical parameters of kidney function versus sham implant ([5]; 3 weeks after grafting): No significant differences | body weight ([5]; s.c. polymeric implants): no effect on the body weight
